What was measured:
Experiment in all cases: biochemical
Design in all cases: Thermo Fisher SelectScreen kinase panel: Z'-LYTE and Adapta activity, LanthaScreen binding
PDK1(direct) = biological target: T1, PDK1(direct) (Homo sapiens, UniProt O15530)
T1 construct: gene PDPK1; direct
Summary of the method: (§1)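 Single-concentration panel: 10 µM GNE684 in KINOMEscan scanMAX binding (468 kinases) and in a 221-kinase panel run as Z'-LYTE/Adapta activity or LanthaScreen binding assays.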

BMX = BMX (Homo sapiens, UniProt P51813)
Summary of the method: as §1

NLK = NLK (Homo sapiens, UniProt Q9UBE8)
Summary of the method: as §1

JNK2 = biological target: T2, JNK2 (Homo sapiens, UniProt P45984)
T2 construct: gene MAPK9
Summary of the method: as §1

ERK2 = biological target: T3, ERK2 (Homo sapiens, UniProt P28482)
T3 construct: gene MAPK1
Summary of the method: as §1

CSK = CSK (Homo sapiens, UniProt P41240)
Summary of the method: as §1

PI3K-G = biological target: T4, PI3K-G (Homo sapiens, UniProt P48736)
T4 construct: gene PIK3CG; p110gamma
Summary of the method: as §1

FAK = biological target: T5, FAK (Homo sapiens, UniProt Q05397)
T5 construct: gene PTK2
T5 sequence (Q05397 whole entry): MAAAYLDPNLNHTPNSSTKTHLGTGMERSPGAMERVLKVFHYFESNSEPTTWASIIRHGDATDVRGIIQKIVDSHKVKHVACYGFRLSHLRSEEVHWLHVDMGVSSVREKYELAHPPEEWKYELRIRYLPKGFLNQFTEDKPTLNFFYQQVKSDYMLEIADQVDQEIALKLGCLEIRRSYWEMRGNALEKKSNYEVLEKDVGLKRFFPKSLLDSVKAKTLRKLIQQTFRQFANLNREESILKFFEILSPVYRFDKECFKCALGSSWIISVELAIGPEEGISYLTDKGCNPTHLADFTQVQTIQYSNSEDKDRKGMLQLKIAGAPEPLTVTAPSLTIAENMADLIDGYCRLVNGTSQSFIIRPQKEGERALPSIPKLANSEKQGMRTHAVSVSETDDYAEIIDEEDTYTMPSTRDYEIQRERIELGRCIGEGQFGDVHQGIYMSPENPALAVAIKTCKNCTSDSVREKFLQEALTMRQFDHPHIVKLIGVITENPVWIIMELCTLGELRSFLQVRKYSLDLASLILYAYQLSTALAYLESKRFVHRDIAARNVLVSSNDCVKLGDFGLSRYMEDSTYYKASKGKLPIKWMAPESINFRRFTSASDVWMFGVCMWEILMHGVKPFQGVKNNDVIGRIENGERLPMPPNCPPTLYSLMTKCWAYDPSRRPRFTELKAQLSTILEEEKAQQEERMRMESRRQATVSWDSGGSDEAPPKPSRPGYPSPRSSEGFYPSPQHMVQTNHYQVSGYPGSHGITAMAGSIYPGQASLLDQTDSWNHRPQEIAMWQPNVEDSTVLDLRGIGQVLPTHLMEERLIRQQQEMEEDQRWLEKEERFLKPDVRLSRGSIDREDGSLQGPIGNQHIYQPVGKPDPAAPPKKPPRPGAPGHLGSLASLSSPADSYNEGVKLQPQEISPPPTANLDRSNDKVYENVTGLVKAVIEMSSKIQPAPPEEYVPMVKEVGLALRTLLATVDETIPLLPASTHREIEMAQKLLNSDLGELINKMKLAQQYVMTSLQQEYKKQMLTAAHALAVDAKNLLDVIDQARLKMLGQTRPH
Summary of the method: as §1

CAMKK1 = CAMKK1 (Homo sapiens, UniProt Q8N5S9)
Summary of the method: as §1

PI3K-A = biological target: T6, PI3K-A (Homo sapiens, UniProt P42336)
T6 construct: gene PIK3CA; p110alpha/p85alpha
Summary of the method: as §1

MSSK1 = biological target: T7, MSSK1 (Homo sapiens, UniProt Q9UPE1)
T7 construct: gene SRPK3
Summary of the method: as §1

EPHB1 = EPHB1 (Homo sapiens, UniProt P54762)
EPHB1, sequence (P54762 whole entry): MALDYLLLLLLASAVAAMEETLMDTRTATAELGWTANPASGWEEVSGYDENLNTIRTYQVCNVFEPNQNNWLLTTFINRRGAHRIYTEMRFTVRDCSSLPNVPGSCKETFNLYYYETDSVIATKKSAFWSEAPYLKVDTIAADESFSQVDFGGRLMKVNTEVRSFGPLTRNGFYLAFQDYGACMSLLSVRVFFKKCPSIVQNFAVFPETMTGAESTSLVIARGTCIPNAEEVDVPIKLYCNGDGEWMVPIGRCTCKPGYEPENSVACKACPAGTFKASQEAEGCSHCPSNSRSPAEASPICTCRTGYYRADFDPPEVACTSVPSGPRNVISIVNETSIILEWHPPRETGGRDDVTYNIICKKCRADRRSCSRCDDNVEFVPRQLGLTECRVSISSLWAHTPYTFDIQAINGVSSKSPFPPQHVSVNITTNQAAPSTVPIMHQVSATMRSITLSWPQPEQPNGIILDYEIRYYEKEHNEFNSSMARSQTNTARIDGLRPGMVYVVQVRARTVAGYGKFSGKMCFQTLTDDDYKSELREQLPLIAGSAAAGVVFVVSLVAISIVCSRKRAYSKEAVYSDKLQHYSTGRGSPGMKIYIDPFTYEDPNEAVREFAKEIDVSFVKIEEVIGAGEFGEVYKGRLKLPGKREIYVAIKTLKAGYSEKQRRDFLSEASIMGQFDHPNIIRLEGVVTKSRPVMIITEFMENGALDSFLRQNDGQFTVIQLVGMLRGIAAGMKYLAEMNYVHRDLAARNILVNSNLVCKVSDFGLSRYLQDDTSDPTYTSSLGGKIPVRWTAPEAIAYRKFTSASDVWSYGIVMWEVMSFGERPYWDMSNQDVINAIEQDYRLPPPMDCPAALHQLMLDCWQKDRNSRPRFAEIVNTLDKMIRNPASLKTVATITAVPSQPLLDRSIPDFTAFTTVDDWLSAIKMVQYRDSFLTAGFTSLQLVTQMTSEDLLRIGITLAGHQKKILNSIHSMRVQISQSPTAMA
Summary of the method: as §1

p70S6K = biological target: T8, p70S6K (Homo sapiens, UniProt P23443)
T8 construct: gene RPS6KB1
Summary of the method: as §1

GRK5 = GRK5 (Homo sapiens, UniProt P34947)
Summary of the method: as §1

PAK1 = PAK1 (Homo sapiens, UniProt Q13153)
Summary of the method: as §1

FGFR4 = FGFR4 (Homo sapiens, UniProt P22455)
Summary of the method: as §1

CLK1 = CLK1 (Homo sapiens, UniProt P49759)
Summary of the method: as §1

WNK2 = WNK2 (Homo sapiens, UniProt Q9Y3S1)
WNK2, sequence (Q9Y3S1 whole entry): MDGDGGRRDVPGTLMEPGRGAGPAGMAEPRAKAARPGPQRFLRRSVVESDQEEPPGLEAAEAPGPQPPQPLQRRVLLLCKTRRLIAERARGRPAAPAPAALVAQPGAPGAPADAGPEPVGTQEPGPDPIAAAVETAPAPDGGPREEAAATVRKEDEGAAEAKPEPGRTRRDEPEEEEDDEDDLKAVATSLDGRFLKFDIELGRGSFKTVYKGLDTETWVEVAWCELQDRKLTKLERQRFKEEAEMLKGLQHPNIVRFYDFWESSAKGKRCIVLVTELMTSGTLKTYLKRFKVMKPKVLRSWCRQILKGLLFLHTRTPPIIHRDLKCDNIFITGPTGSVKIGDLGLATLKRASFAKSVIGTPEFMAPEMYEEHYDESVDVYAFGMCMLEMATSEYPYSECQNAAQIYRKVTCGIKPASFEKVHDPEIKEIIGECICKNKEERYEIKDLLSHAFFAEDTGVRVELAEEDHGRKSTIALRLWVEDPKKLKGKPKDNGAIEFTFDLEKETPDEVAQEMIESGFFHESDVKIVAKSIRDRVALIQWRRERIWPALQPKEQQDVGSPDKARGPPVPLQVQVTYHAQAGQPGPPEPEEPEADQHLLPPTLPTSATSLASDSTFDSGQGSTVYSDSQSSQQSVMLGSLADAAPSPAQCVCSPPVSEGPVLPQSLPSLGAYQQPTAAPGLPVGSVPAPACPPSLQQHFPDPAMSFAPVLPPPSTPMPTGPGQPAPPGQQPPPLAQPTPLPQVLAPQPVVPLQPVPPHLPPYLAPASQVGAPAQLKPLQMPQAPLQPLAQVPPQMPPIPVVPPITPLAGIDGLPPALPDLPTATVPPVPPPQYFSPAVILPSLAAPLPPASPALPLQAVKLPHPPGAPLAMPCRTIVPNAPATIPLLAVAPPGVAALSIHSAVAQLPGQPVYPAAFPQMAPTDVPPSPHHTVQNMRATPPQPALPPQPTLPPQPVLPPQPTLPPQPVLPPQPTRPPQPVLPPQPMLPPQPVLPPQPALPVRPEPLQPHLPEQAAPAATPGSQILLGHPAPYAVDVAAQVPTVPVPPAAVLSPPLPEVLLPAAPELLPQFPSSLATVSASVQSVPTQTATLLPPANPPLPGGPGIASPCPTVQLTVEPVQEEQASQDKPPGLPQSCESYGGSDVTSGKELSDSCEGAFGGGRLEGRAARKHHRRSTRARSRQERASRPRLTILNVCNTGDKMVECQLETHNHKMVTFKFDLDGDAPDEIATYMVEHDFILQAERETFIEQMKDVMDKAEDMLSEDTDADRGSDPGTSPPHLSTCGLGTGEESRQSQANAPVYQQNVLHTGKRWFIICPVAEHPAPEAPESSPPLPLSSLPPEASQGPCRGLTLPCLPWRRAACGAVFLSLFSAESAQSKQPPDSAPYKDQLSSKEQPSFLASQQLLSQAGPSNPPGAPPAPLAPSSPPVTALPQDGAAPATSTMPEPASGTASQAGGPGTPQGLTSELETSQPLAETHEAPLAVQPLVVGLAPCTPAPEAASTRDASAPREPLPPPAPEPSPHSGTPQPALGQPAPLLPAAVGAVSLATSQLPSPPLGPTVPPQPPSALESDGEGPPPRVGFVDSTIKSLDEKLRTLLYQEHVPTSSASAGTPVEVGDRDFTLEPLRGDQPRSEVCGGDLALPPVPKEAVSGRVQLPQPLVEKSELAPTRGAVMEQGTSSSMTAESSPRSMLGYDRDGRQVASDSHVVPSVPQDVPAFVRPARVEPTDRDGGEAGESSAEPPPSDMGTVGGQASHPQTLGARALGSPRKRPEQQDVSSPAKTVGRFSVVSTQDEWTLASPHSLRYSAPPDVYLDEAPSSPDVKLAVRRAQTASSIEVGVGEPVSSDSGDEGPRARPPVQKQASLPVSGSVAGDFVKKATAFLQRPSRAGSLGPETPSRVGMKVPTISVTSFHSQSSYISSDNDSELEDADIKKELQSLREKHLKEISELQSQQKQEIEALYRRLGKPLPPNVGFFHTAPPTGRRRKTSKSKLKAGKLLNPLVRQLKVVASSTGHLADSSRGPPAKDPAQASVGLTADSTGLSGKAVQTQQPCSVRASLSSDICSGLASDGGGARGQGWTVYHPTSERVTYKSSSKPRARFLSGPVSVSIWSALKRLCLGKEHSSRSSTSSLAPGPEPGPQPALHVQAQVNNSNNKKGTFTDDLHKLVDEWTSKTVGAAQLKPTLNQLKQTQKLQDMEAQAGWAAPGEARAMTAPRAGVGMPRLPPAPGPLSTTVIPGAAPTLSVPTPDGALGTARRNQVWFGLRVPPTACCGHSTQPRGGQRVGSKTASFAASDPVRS
Summary of the method: as §1

IRAK4 = IRAK4 (Homo sapiens, UniProt Q9NWZ3)
IRAK4, sequence (Q9NWZ3 whole entry): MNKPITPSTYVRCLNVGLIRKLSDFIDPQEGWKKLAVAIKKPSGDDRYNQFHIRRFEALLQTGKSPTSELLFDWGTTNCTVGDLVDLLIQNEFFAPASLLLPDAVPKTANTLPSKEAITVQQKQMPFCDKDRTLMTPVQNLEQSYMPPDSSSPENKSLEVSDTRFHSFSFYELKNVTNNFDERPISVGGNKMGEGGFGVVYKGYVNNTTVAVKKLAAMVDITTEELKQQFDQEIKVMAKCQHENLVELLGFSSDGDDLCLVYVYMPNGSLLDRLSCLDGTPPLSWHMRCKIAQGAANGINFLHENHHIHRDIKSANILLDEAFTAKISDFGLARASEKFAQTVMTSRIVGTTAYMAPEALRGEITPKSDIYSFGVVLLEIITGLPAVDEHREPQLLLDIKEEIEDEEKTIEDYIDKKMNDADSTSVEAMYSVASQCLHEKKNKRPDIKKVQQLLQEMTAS
Summary of the method: as §1

ERBB4 = ERBB4 (Homo sapiens, UniProt Q15303)
Summary of the method: as §1

BRAF = BRAF (Homo sapiens, UniProt P15056)
Summary of the method: as §1

SPHK1 = SPHK1 (Homo sapiens, UniProt Q9NYA1)
Summary of the method: as §1

BLK = BLK (Homo sapiens, UniProt P51451)
Summary of the method: as §1

SMILES: COc1cc2c(cn1)N(C)C(=O)[C@@H](NC(=O)c1nc3n(n1)[C@H](c1ccccc1)CC3)CC2 [GNE684, (S)-N-((S)-7-methoxy-1-methyl-2-oxo-2,3,4,5-tetrahydro-1H-pyrido[3,4-b]azepin-3-yl)-5-phenyl-6,7-dihydro-5H-pyrrolo[1,2-b][1,2,4]triazole-2-carboxamide]
- inhibition at 10 µM (PDK1(direct)): 5%
- inhibition at 10 µM (BMX): 4.5%
- inhibition at 10 µM (NLK): -0.5%
- inhibition at 10 µM (JNK2): -4%
- inhibition at 10 µM (ERK2): 1%
- inhibition at 10 µM (CSK): -1.5%
- inhibition at 10 µM (PI3K-G): 13.5%
- inhibition at 10 µM (FAK): 7.5%
- inhibition at 10 µM (CAMKK1): -7.5%
- inhibition at 10 µM (PI3K-A): 16%
- inhibition at 10 µM (MSSK1): 2.5%
- inhibition at 10 µM (EPHB1): 3%
- inhibition at 10 µM (p70S6K): 10%
- inhibition at 10 µM (GRK5): 4.5%
- inhibition at 10 µM (PAK1): 2.5%
- inhibition at 10 µM (FGFR4): -6.5%
- inhibition at 10 µM (CLK1): -0.5%
- inhibition at 10 µM (WNK2): -8.5%
- inhibition at 10 µM (IRAK4): 5%
- inhibition at 10 µM (ERBB4): 4%
- inhibition at 10 µM (BRAF): 6.5%
- inhibition at 10 µM (SPHK1): 4.5%
- inhibition at 10 µM (BLK): 6.5%

Reference: PMC7206119, “RIP1 inhibition blocks inflammatory diseases but not tumor growth or metastases” (Cell Death and Differentiation, 2019)
